Drawing on patent US20060063759A1, “Tricyclic steroid hormone nuclear receptor modulators” (priority 2002, published 2006), this text covers Ki and melting point for 22 compounds.

Each structure is given as a SMILES string.

The target in data set [1] is T1, human MR (Homo sapiens, UniProt P08235).
T1 construct: The full length human MR gene is cloned from a human kidney or human brain cDNA library; His tag from the pAcHLT vector (own knowledge); made in house; host or cells: Sf9 insect cells (baculovirus, pAcHLT transfer vector)
T1 sequence (P08235 1-984): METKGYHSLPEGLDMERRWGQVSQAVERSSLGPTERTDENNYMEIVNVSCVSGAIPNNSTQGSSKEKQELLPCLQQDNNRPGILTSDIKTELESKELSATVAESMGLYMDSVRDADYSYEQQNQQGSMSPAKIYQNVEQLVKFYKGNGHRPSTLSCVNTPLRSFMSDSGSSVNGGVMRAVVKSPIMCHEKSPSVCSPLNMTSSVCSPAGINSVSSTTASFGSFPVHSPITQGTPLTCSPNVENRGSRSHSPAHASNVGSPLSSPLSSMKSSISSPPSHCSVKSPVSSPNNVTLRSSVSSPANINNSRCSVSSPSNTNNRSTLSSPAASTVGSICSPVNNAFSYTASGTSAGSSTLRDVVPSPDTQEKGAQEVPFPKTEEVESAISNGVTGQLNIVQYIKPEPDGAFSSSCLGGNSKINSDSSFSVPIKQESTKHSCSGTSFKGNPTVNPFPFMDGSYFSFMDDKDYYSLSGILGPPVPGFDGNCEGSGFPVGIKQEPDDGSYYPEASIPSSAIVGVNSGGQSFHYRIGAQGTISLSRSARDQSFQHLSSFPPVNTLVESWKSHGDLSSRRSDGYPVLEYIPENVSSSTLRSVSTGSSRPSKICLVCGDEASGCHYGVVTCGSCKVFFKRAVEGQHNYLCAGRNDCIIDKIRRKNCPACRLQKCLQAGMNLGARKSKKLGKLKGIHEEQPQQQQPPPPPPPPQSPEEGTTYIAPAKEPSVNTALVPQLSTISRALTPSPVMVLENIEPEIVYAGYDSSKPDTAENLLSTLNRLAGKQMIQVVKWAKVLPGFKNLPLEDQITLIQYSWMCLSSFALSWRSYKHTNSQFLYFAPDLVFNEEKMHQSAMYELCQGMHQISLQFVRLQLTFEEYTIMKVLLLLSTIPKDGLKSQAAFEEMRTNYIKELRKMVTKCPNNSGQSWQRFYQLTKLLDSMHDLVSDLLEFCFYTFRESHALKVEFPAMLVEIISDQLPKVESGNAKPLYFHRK
As to the kind of experiment: Mineralocorticoid Receptor Binding Assay ([3H]-aldosterone). Conditions: [3H]-aldosterone binding, human MR expressed in Sf9 cells; read-out: MR Ki. The method in brief: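 Receptor source: freeze-thaw lysate of baculovirus-infected Sf9 cells carrying full-length human MR, 20-25 μg protein. Incubation ~16 h at 4 °C with shaking, pH 7.5 buffer containing 30 mM sodium molybdate and 10% glycerol.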

Data set [2] addresses T2, glucocorticoid receptor (Homo sapiens, UniProt P04150).
T2 construct: containing 50-200 ug of A549 cell extract and 1.86 nM [^3H]-dexamethasone; host or cells: A549 human lung epithelial cells (sonicated cell extract)
T2 sequence (P04150 1-777): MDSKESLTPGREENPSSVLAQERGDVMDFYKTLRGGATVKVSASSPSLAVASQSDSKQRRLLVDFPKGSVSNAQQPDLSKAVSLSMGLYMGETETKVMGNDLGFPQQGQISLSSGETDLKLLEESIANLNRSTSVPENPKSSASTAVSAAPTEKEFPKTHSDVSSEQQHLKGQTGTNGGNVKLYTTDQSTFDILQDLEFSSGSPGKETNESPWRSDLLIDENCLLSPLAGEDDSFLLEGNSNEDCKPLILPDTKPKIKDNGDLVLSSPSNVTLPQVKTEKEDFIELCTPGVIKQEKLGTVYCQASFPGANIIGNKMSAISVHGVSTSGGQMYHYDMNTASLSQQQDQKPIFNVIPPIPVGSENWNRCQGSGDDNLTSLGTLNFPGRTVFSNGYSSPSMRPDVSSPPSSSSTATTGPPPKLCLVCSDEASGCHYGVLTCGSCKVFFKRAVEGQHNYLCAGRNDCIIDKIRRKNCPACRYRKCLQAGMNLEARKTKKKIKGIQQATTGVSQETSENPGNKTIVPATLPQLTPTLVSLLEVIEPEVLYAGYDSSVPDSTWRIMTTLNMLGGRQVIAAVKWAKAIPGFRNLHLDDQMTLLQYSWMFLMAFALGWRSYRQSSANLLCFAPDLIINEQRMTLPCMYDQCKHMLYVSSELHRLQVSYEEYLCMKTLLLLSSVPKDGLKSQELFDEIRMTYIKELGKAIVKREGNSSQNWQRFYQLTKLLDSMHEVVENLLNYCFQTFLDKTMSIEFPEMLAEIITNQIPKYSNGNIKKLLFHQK
As to the kind of experiment: Glucocorticoid Receptor Binding Assay ([3H]-dexamethasone, A549 cell extract). Conditions: [3H]-dexamethasone binding, read-out: GR Ki. The method in brief:
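Displacement of [3H]-dexamethasone (1.86 nM) from glucocorticoid receptor in sonicated A549 lung epithelial cell extracts, 16 h at 4 °C, pH 7.2 molybdate-containing buffer. Bound radioactivity was scintillation-counted after charcoal/dextran stripping of free ligand.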

Turning to `CNS(=O)(=O)c1cc(C)ccc1C=C1c2ccccc2CCc2ccccc21` [Example 2, 2-(10,11-Dihydro-dibenzo[a,d]cyclohepten-5-ylidenemethyl)-5,N-dimethyl-benzenesulfonamide], the melting point (commonly the temperature, or range, at which the solid turns liquid) came out at 174.9 °C. Besides, the Ki (as a rule, a dissociation constant, usually derived from enzyme kinetics or from competition with a known ligand) in data set [1] was less than 500 nM. For the same compound, the Ki in data set [2] was less than 500 nM.
The compound `CNS(=O)(=O)c1ccccc1C=C1c2ccccc2CCc2ccccc21` [Example 4, 2-(10,11-Dihydro-dibenzo[a,d]cyclohepten-5-ylidenemethyl)-N-methyl-benzenesulfonamide] came in with a melting point of 149 °C. Moreover, the inhibitory constant (Ki) in data set [1] is less than 500 nM. For the same compound, in data set [2], the Ki was less than 1000 nM.
Taken in the same sequence, the figures for `CCCNS(=O)(=O)c1ccccc1C=C1c2ccccc2CCc2ccccc21` [Example 6, 2-(10,11-Dihydro-benzo[a,d]cyclohepten-5-ylidenemethyl)-N-propyl-benzenesulfonamide] were 155.6 °C, less than 500 nM and less than 500 nM.
The like results for `CNS(=O)(=O)c1ccc(C=C2c3ccccc3CCc3ccccc32)cc1` [Example 27, 4-(10,11-Dihydro-dibenzo[a,d]cyclohepten-5-ylidenemethyl)-N-methyl-benzenesulfonamide] were, in that order, 189.7 °C, less than 500 nM and less than 1000 nM.
`COc1ccccc1C=C1c2ccccc2CCc2ccccc21` [Example 31, 5-(2-Methoxy-benzylidene)-10,11-dihydro-5H-dibenzo-[a,d]cycloheptene] came in with a melting point of 129.3 °C. In data set [1], the Ki is less than 500 nM. In addition, the Ki in data set [2] was less than 10000 nM.
`COc1cccc(C=C2c3ccccc3CCc3ccccc32)c1` [Example 32, 5-(3-Methoxy-benzylidene)-10,11-dibydro-5H-dibenzo-[a,d]cycloheptene] had a melting point of 83 °C. Also, the Ki in data set [1] was less than 500 nM. Also, the Ki in data set [2] is less than 1000 nM.
Consider `COc1cccc(C=C2c3ccccc3CCc3ccccc32)c1OC` [Example 35], for which the melting point worked out at 130.6 °C. Also, the Ki in data set [1] was less than 500 nM. Further, the Ki in data set [2] was less than 500 nM.
For the compound `Oc1ccc(C=C2c3ccccc3CCc3ccccc32)cc1` [Example 60, b-(10,11-Dihydro-dibenzo[a,d]cyclohepten-5-ylidenemethyl)-phenol], the melting point stood at 56.9 °C. The Ki in data set [1] was less than 500 nM. Further, the inhibition constant Ki in data set [2] is less than 10000 nM.
Taken in the same sequence, the figures for `Oc1ccc(C=C2c3ccccc3CCc3ccccc32)cc1O` [Example 62, 4-(10,11-Dihydro-dibenzo[a,d]cyclohepten-5-ylidenemethyl)-benzene-1,2-diol] were 138 °C, less than 500 nM and less than 10000 nM.
The like results for `CS(=O)(=O)Nc1cc(C=C2c3ccccc3CCc3ccccc32)ccc1O` [Example 64, N-[5-(10,11-Dihydro-dibenzo[a,d]cyclohepten-5-ylidenemethyl)-2-hydroxy-phenyl]-methanesulfonamide] were, in that order, 122.6 °C, less than 500 nM and less than 500 nM.
Taken in the same sequence, the figures for `FC(F)Oc1cccc(C=C2c3ccccc3CCc3ccccc32)c1` [Example 65, 5-(3-Difluoromethoxy-benzylidene)-10,11-dihydro-5H-dibenzo[a,d]cycloheptene] were 91.3 °C, less than 500 nM and less than 10000 nM.
Take `O=Cc1ccc(C=C2c3ccccc3CCc3ccccc32)cc1` [Example 68, 4-(10,11-Dihydro-dibenzo[a,d]cyclohepten-5-ylidenemethyl)-benzaldehyde]: the melting point worked out at 106.4 °C. The inhibition constant (Ki) in data set [1] was less than 500 nM. In addition, the Ki in data set [2] is less than 500 nM.
`O=Cc1ccccc1C=C1c2ccccc2CCc2ccccc21` [Example 69, 2-(10,11-Dihydro-dibenzo[a,d]cyclohepten-5-ylidenemethyl)-benzaldehyde] returned a melting point of 198.9 °C. The Ki in data set [1] was less than 500 nM. Further, the Ki in data set [2] is less than 500 nM.
`O=Cc1cccc(C=C2c3ccccc3CCc3ccccc32)c1` [Example 70, 3-(10,11-Dihydro-dibenzo[a,d]cyclohepten-5-ylidenemethyl)-benzaldehyde] yielded a melting point of 86.7 °C. For the same compound, in data set [1], the Ki was less than 500 nM. For the same compound, the Ki in data set [2] was less than 1000 nM.
Regarding `FC(F)c1ccccc1C=C1c2ccccc2CCc2ccccc21` [Example 71, 5-(2-Difluoromethyl-benzylidene)-10,11-dihydro-5H-dibenzo[a,d]cycloheptene], the melting point stood at 13.3 °C. In addition, the Ki in data set [1] was less than 500 nM. Further, the Ki in data set [2] was less than 500 nM.
Compound `FC(F)c1cccc(C=C2c3ccccc3CCc3ccccc32)c1` [Example 72, 5-(3-Difluoromethyl-benzylidene)-10,11-dihydro-5H-dibenzo[a,d]cycloheptene] displayed a melting point of 92.5 °C. Also, the Ki in data set [1] was less than 500 nM. Moreover, the Ki in data set [2] is less than 10000 nM.
The like results for `OCc1ccccc1C=C1c2ccccc2CCc2ccccc21` [Example 74, [2-(10,11-Dihydro-dibenzo[a,d]cyclohepten-5-ylidenemethyl)-phenyl]-methanol] were, in that order, 121.8 °C, less than 500 nM and less than 500 nM.
`N#Cc1ccccc1C=C1c2ccccc2CCc2ccccc21` [Example 80, 2-(10,11-Dihydro-dibenzo[a,d]cyclohepten-5-ylidenemethyl)-benzonitrile] gave a melting point of 185.4 °C. For the same compound, in data set [1], the Ki is less than 500 nM. For the same compound, in data set [2], the Ki is less than 500 nM.
In turn, `N#Cc1cccc(C=C2c3ccccc3CCc3ccccc32)c1` [Example 81, 3-(10,11-Dihydro-dibenzo[a,d]cyclohepten-5-ylidenemethyl)-benzonitrile] showed a melting point of 115.7 °C. For the same compound, the Ki in data set [1] is less than 500 nM. Besides, the Ki in data set [2] was less than 10000 nM.
In the case of `Nc1cccc(C=C2c3ccccc3CCc3ccccc32)c1` [Example 86, 3-(10,11-Dihydro-dibenzo[a,d]cyclohepten-5-ylidenemethyl)-phenylamine], the melting point is 204.3 °C. For the same compound, in data set [1], the Ki was less than 500 nM. Also, the Ki in data set [2] was less than 500 nM.
Take `Nc1ccccc1C=C1c2ccccc2CCc2ccccc21` [Example 87, 2-(10,11-Dihydro-dibenzo[a,d]cyclohepten-5-ylidenemethyl)-phenylamine]: the melting point came to 145.2 °C. In addition, in data set [1], the Ki is less than 500 nM. In addition, the Ki in data set [2] was less than 500 nM.
Regarding `Nc1ccc(C=C2c3ccccc3CCc3ccccc32)cc1` [Example 88, 4-(10,11-Dihydro-dibenzo[a,d]cyclohepten-5-ylidenemethyl)-phenylamine], the melting point was greater than 250 °C. In data set [1], the Ki is less than 500 nM. Besides, the Ki in data set [2] was less than 1000 nM.
